In PubChem BioAssay AID1918938 (Molecular Pharmacology Branch, DTP, NCI, 2023):

Test system: 556581-035-R-J1-PDC complex spheroid viability
Assay: Anticancer human tumor 556581-035-R-J1-PDC patient-derived ovarian carcinoma cell line growth inhibition
Conditions: for IC50: curve of first compound; for viability, T/C: stronger effect = lower value
From the text: Multicellular complex tumor spheroid response to LSD1 Inhibitor Iadademstat in combination with a variety of drugs and investigational agents in selected tumor cell lines
The current study was undertaken to assess response to LSD1 inhibitors in combination with standard-of-care drugs and investigational agents in solid tumor complex spheroid models as well as in the K-562 leukemia. Complex spheroids include a stromal component modeled by human endothelial cells (HUVEC) and fibroblasts modeled by human mesenchymal stem cells (MSCs). The concentration ranges selected for each drug and investigational agent were based upon clinically achievable concentrations if the clinical Cmax of the agent was known.
Compounds. The drugs and investigational agents used in this study are listed on Table 1. All of the agents used, including staurosporine (NSC755774) and gemcitabine (NSC613327), were obtained from the Developmental Therapeutics Program, NCI. FDA-approved anticancer drugs are available from the NCI at http://dtp.nci.nih.gov/branches/dscb/oncology_drugset_explanation.html. Drugs and investigational agents were >95% pure by proton nuclear magnetic resonance (NMR) and liquid chromatography/mass spectrometry (LC/MS). Stock solutions were prepared at 400x in DMSO, stored at -70 degrees C, and diluted in fresh medium prior to their use. The final concentration of DMSO in cell culture wells never exceeded 0.25% (v/v). The FDA-approved anticancer drug set is available from the Developmental Therapeutics Program at https://dtp.cancer.gov/organization/dscb/obtaining/available_plates.htm. All drugs and investigational agents were tested over a range starting from a high concentration at or near the clinical Cmax and decreasing in half-log increments. If the clinical Cmax for an agent had not been determined, the highest concentration tested was 10 microM.
Cell Lines. The patient-derived cancer cell (PDC) lines: 292921-168-R-J2-PDC, K24384-001-R-PDC, and 521955-158-R2-J5-PDC pancreatic carcinomas, 556581-035-R-J1 ovarian carcinoma, 324938-238-R-J1-PDC, 855422-203-R-J1-PDC and 883617-216-R-J1-PDC urothelial bladder carcinomas, 743489-274-T-PDC renal cell carcinoma, 138582-R-J1 Merkel cell tumor, K60290-347-R-J1 and K57222-313-R-J1-PDC glioblastomas, 653999-131-R-J2-PDC, LG0703-F948-PDC, and 349418-098-R-PDC non-small cell lung carcinomas, 885512-296-R-J2-PDC, 171881-019-R-J1-PDC breast carcinomas and 186277-243-T-J2-PDC and 233499-124-R-J2-PDC colon carcinomas were obtained from the NCI Patient-Derived Models Repository (PDMR, https://pdmr.cancer.gov). The established cell lines NCI/ADR-RES (RRID:CVCL_14520 and OVCAR-5 (RRID:CVCL_1628) ovarian carcinomas, 786-O (RRID:CVCL_1051) and A498 (RRID:CVCL_A498) renal cell carcinoma, NCI-H211 (ATCC, cat. CRL-5824; RRID:CVCL_1529), NCI-H196 (ATCC, cat. CRL-5823, RRID:CVCL_1509), SW 1271 (ATCC, cat. CRL-2177, RRID:CVCL_1716) and NCI-H1876 (ATCC, cat. CRL-5902, RRID:CVCL_1503) small cell lung carcinomas, MDA-MB-231 (RRID:CVCL_0062) and MDA-MB-468 (RRID:CVCL_0419)breast carcinomas (10-12). Pooled donor human umbilical vein endothelial cells (HUVEC, Lonza, cat. CC-2519) and human mesenchymal stem cells (hMSC, Lonza, cat. PT-2501) were purchased from Lonza (Walkersville, MD).
Cell Culture. All cells were maintained in an incubator at 37 degrees C and 5% CO2 with 95% humidity. The PDC lines were cultured according to standard operating procedures established by the NCI PDMR (https://pdmr.cancer.gov). Briefly all PDCs were thawed and cultured in Matrigel-coated flasks prepared with a working solution of 1X Ham's F-12 nutrient mix, without supplementation (Invitrogen, Waltham, MA, cat. 11765054), 100 U/mL penicillin-streptomycin (Invitrogen, cat. 15140122), and 2.5% Matrigel (Corning Inc., Corning, NY, cat. 354248) for the first three passages. […]

[1] = second compound 0.1 µM, first compound 0.000949 µM
[2] = second compound 0.1 µM, first compound 0.003 µM
[3] = second compound 0.1 µM, first compound 0.00949 µM
[4] = second compound 0.1 µM, first compound 0.03 µM
[5] = second compound 0.1 µM, first compound 0.0949 µM
[6] = second compound 0.1 µM, first compound 0.3 µM
[7] = second compound 0.316 µM, first compound 0.000949 µM
[8] = second compound 0.316 µM, first compound 0.003 µM
[9] = second compound 0.316 µM, first compound 0.00949 µM
[10] = second compound 0.316 µM, first compound 0.03 µM
[11] = second compound 0.316 µM, first compound 0.0949 µM
[12] = second compound 0.316 µM, first compound 0.3 µM
[13] = second compound 1 µM, first compound 0.000949 µM
[14] = second compound 1 µM, first compound 0.003 µM
[15] = second compound 1 µM, first compound 0.00949 µM
[16] = second compound 1 µM, first compound 0.03 µM
[17] = second compound 1 µM, first compound 0.0949 µM
[18] = second compound 1 µM, first compound 0.3 µM
[19] = second compound 3.16 µM, first compound 0.000949 µM
[20] = second compound 3.16 µM, first compound 0.003 µM
[21] = second compound 3.16 µM, first compound 0.00949 µM
[22] = second compound 3.16 µM, first compound 0.03 µM
[23] = second compound 3.16 µM, first compound 0.0949 µM
[24] = second compound 3.16 µM, first compound 0.3 µM
[25] = second compound 10 µM, first compound 0.000949 µM
[26] = second compound 10 µM, first compound 0.003 µM
[27] = second compound 10 µM, first compound 0.00949 µM
[28] = second compound 10 µM, first compound 0.03 µM
[29] = second compound 10 µM, first compound 0.0949 µM
[30] = second compound 10 µM, first compound 0.3 µM
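Further: spheroids exposed to agents for seven days.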
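Wherever viability, T/C is given: 100% = DMSO vehicle control wells.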

Row | SMILES | IC50 (second compound 0.1 µM) | IC50 (second compound 0.316 µM) | IC50 (second compound 1 µM) | IC50 (second compound 3.16 µM) | IC50 (second compound 10 µM) | viability, T/C [1] | viability, T/C [2] | viability, T/C [3] | viability, T/C [4] | viability, T/C [5] | viability, T/C [6] | viability, T/C [7] | viability, T/C [8] | viability, T/C [9] | viability, T/C [10] | viability, T/C [11] | viability, T/C [12] | viability, T/C [13] | viability, T/C [14] | viability, T/C [15] | further results
1 | CCc1c2c(nc3ccc(O)cc13)-c1cc3c(c(=O)n1C2)COC(=O)[C@]3(O)CC + NC1CC1c1ccc(-c2cccc(O)c2)cc1 | < 0.949 nM | < 0.949 nM | < 0.949 nM | < 0.949 nM | < 0.949 nM | 14.6% | 11% | 0.89% | 0.24% | 0.2% | 0.32% | 15.4% | 11.4% | 0.92% | 0.23% | 0.17% | 0.28% | 15.4% | 12.1% | 1.74% | viability, T/C [16]: 0.23%; viability, T/C [17]: 0.19%; viability, T/C [18]: 0.27%; viability, T/C [19]: 13.8%; viability, T/C [20]: 11.7%; viability, T/C [21]: 1.62%; viability, T/C [22]: 0.26%; viability, T/C [23]: 0.27%; viability, T/C [24]: 0.73%; viability, T/C [25]: 14.4%; viability, T/C [26]: 10.7%; viability, T/C [27]: 1.64%; viability, T/C [28]: 0.89%; viability, T/C [29]: 0.3%; viability, T/C [30]: 0.37%
2 | Nc1ccn(C2OC(CO)C(O)C2(F)F)c(=O)n1 (stereo not given) + NC1CC1c1ccc(-c2cccc(O)c2)cc1 | 1.32 nM | 1.4 nM | 1.94 nM | 1.75 nM | 1.83 nM | 58.8% | 28.2% | 22.4% | 26.8% | 29.3% | 27% | 60.1% | 30.7% | 24.3% | 25% | 29.3% | 27.1% | 74% | 36.5% | 24.2% | viability, T/C [16]: 25.4%; viability, T/C [17]: 29.9%; viability, T/C [18]: 22.9%; viability, T/C [19]: 71%; viability, T/C [20]: 31.3%; viability, T/C [21]: 28.9%; viability, T/C [22]: 26.5%; viability, T/C [23]: 28.5%; viability, T/C [24]: 29%; viability, T/C [25]: 67.2%; viability, T/C [26]: 37.3%; viability, T/C [27]: 34.1%; viability, T/C [28]: 29.8%; viability, T/C [29]: 37.1%; viability, T/C [30]: 34.1%
